Experimental data from the NIST ThermoML archive (doi:10.1016/j.jct.2016.04.002).
Numbers after ± are expanded uncertainties.

Columns and labels:
[1] = Crystal; DTA
[2] = Molar enthalpy of transition or fusion; conditions: Crystal; DSC

For `O=C(O)[C@]1(O)C[C@@H](O)[C@@H](O)[C@H](O)C1`, the Normal melting temperature [1] was 167.01 ± 1.1 °C and the “Molar enthalpy of transition or fusion” value [2] was 50.5 ± 2.2 kJ/mol.
